Experimental data reported in patent US20260207605A1, “KRAS G12D INHIBITORS AND USES THEREOF” (Abbisko Therapeutics Co., Ltd., priority 2022, published 2026).
Read-outs that look alike come from different tables or passages of the source.

Experiments:
[1] = target: KRAS^G12D/cRAF (Homo sapiens, UniProt P01116, G12D); test: KRAS G12D/cRAF binding test (Alphalisa); settings: His-tagged KRAS G12D with GMPPNP, GST-tagged cRAF
Method: The compound was dissolved in 100% DMSO at a starting concentration of 5 mM and diluted in DMSO with a 3-fold serial dilution method for a total of 8 concentration points. 1 μL of the compound or DMSO at each concentration point was added into 99 μL of the experimental buffer to obtain 10× stock solution.
(§1) The ratio for each compound concentration was calculated from the signal of the DMSO control group contained in each assay plate and the Alphalisa signal in each compound well. The compound concentration required for inhibitory concentration at 50% (IC50) was determined using a four-parameter logarithmic dose-response equation by testing the concentration of the compound and the value of the ratio. The endpoint value (IC50) of the reference compound was assessed in each experiment as a quality control measure. If the endpoint value is within three times the expected value, the experiment may be considered acceptable.

[2] = system: AsPC-1; test: Anti-proliferative 2D CTG assay, AsPC-1; type: cell-based; settings: Homo sapiens, ASPC1, 96 h, AsPC-1 cells, 4 days incubation, read-out: AsPC-1 cell IC50
Method: (§2) 1.1 Day 0 Cell Culture and Plating
(§3) Cells in a logarithmic growth phase were harvested and the cells were counted by using a […]. Cell viability was tested by using a trypan blue exclusion method to ensure that cell viability was above 90%. The cell concentration was adjusted to the desired final density, and 90 μL of cell suspension was added to a 96-well plate, then the cells were incubated overnight at 37° C., 5% CO2 and 95% humidity.
(§4) 10 μL PBS was added to each well of the TO plate containing cells. The CTG reagent was thawed and the plate was equilibrated to room temperature for 30 minutes. The CTG solution of 50 µL/well was added to each well. The cells were lysed by shaking on an orbital shaker for 5 minutes. The plate was left at room temperature for 20 minutes to stabilize the luminescence signal. The TO fluorescence signal value was read.
(§5) From the 10 mM stock solution, with a ratio of 1:5, 9-point serial dilutions were performed. The 10× medium containing the compound was transferred into corresponding wells of the 96 wells. The final maximum compound concentration was […] and the final DMSO concentration was 0.1%. The 96-well plate was placed in a 37° C. incubator and incubated for 4 days.
(§6) 50 μL/well of detection reagent (CTG) was added to the cells, and the signal was read in an Envision machine.
as §1, with “The percent inhibition (%) at” for “The ratio for”, “signal in” for “signal of”, “the HPE and ZPE” for “the DMSO”, “control wells and the fluorescence signal in the individual compound wells included” for “control group contained”, “assay plate. […]” for “assay plate and the Alphalisa signal in each compound well.”, “the inhibition percentage value.” for “the value of the ratio.”

[3] = system: AGS; test: Anti-proliferative 2D CTG assay, AGS; type: cell-based; settings: AGS cells, 4 days incubation, read-out: AGS cell IC50
Method: as §2, §3, §4, §5, §6
as §1, with “The percent inhibition (%) at” for “The ratio for”, “signal in” for “signal of”, “the HPE and ZPE” for “the DMSO”, “control wells and the fluorescence signal in the individual compound wells included” for “control group contained”, “assay plate. […]” for “assay plate and the Alphalisa signal in each compound well.”, “the inhibition percentage value.” for “the value of the ratio.”

[4] = system: HPAC; test: Anti-proliferative 2D CTG assay, HPAC; type: cell-based; settings: Homo sapiens, 96 h, HPAC cells, 4 days incubation, read-out: HPAC cell IC50
Method: as §2, §3, §4, §5, §6
as §1, with “The percent inhibition (%) at” for “The ratio for”, “signal in” for “signal of”, “the HPE and ZPE” for “the DMSO”, “control wells and the fluorescence signal in the individual compound wells included” for “control group contained”, “assay plate. […]” for “assay plate and the Alphalisa signal in each compound well.”, “the inhibition percentage value.” for “the value of the ratio.”

[5] = system: LS513; test: Anti-proliferative 2D CTG assay, LS513; type: cell-based; settings: Homo sapiens, LS-513, 96 h, LS513 cells, 4 days incubation, read-out: LS513 cell IC50
Method: as §2, §3, §4, §5, §6
as §1, with “The percent inhibition (%) at” for “The ratio for”, “signal in” for “signal of”, “the HPE and ZPE” for “the DMSO”, “control wells and the fluorescence signal in the individual compound wells included” for “control group contained”, “assay plate. […]” for “assay plate and the Alphalisa signal in each compound well.”, “the inhibition percentage value.” for “the value of the ratio.”

[6] = Pharmacokinetic experiment in mice (single PO or IV administration); settings: male, ICR, mouse, plasma
Text: The purpose of this trial is to study the pharmacokinetic behavior of some compounds of the present invention, and the administration method is: single oral administration (PO) or intravenous administration (IV) to ICR mice.
ICR mice male N=9 original source: Shanghai Sippr-Bk Lab Animal Co., Ltd.
The compounds were weighed and dissolved in the corresponding solution (0.5% CMC+1% tween water solution or 10% PG+10% Solutol®+80% pH3 citrate buffer). The mixture was then shaken well and sonicated to prepare a 1 mg/mL stock solution. Nine mice were orally administered at a dose of 10 mg/kg or intravenously administered at a dose of 2 mg/kg after an overnight fast.
About 90 μL of blood was collected via the submandibular vein per time point, heparin sodium anticoagulant was added, the sample was placed on ice after collection, and plasma was centrifuged within 1 hour (centrifugation conditions: 8,000 rpm, 6 minutes, 2-8° C.). The blood collection timepoints were 0, 0.25, 0.5, 1, 2, 4, 6, 8 and 24 h. The samples were stored in a −20° C. refrigerator.
The plasma sample was 40 μL, 160 μL of ice-cold acetonitrile containing internal standard was added, vortexed for 3 minutes, and centrifuged at 11,000 rpm for 5 minutes. 100 μL of the supernatant was taken and added to 100 μL of water, 5 μL of the sample was taken and injected into LC/MS/MS for analysis.

Chain of KRAS^G12D/cRAF (P01116 1-188 isoform P01116-2 G12D): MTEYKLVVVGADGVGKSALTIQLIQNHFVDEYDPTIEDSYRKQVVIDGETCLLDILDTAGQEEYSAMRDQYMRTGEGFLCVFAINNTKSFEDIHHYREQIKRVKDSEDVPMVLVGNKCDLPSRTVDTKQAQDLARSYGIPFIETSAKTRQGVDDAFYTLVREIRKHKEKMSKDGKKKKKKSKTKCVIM

C#Cc1c(F)ccc2cc(O)cc(-c3ncc4c(N5C[C@@H]6CC[C@](CC)(C5)N6)nc(OCC56CC(=C)CN5CC(=C)C6)nc4c3F)c12 [Example 5, 4-(2-((2,6-dimethylenetetrahydro-1H-pyrrolizin-7a(5H)-yl)methoxy)-4-((1R,5S)-1-ethyl-3,8-diazabicyclo[3.2.1]octan-3-yl)-8-fluoropyrido[4,3-d]pyrimidin-7-yl)-5-ethynyl-6-fluoronaphthalen-2-ol]
IC50 [1]: 16.5 nM | IC50 [2]: 45.8 nM | IC50 ([3]; Homo sapiens, AGS, 96 h): 14.1 nM

C#Cc1c(F)ccc2cc(O)cc(-c3ncc4c(N5C[C@@H]6CC[C@](C7CC7)(C5)N6)nc(OC[C@@]56CCCN5C/C(=C/F)C6)nc4c3F)c12 [Example 90, 4-(4-((1S,5S)-1-cyclopropyl-3,8-diazabicyclo[3.2.1]octan-3-yl)-8-fluoro-2-(((S,E)-2-(fluoromethylene)tetrahydro-1H-pyrrolizin-7a(5H)-yl)methoxy)pyrido[4,3-d]pyrimidin-7-yl)-5-ethynyl-6-fluoronaphthalen-2-ol]
IC50 [1]: 40.7 nM | IC50 [2]: 103 nM | IC50 ([3]; Homo sapiens, AGS, 96 h): 28.1 nM

C#Cc1c(F)ccc2cc(O)cc(-c3ncc4c(N5C[C@@H]6CC[C@](C7CC7)(C5)N6)nc(OCC56CC(=C)CN5CC(=C)C6)nc4c3F)c12 [Example 12, 4-(4-((1S,5S)-1-cyclopropyl-3,8-diazabicyclo[3.2.1]octan-3-yl)-2-((2,6-dimethylenetetrahydro-1H-pyrrolizin-7a(5H)-yl)methoxy)-8-fluoropyrido[4,3-d]pyrimidin-7-yl)-5-ethynyl-6-fluoronaphthalen-2-ol]
IC50 [1]: 102 nM | IC50 [2]: 219 nM | IC50 ([3]; Homo sapiens, AGS, 96 h): 104 nM

C#Cc1c(F)ccc2cc(O)cc(-c3ncc4c(N5C[C@@H]6CC[C@](C7CC7)(C5)N6)nc(OC[C@@]56CCCN5CC(=C(F)F)C6)nc4c3F)c12 [Example 45, 4-(4-((1S,5S)-1-cyclopropyl-3,8-diazabicyclo[3.2.1]octan-3-yl)-2-(((S)-2-(difluoromethylene)tetrahydro-1H-pyrrolizin-7a (5H)-yl)methoxy)-8-fluoropyrido [4,3-d]pyrimidin-7-yl)-5-ethynyl-6-fluoronaphthalen-2-ol]
IC50 [1]: 52.5 nM | IC50 [4]: 133 nM | IC50 [5]: 163 nM

[2H]C([2H])([2H])[C@@]12CC[C@@H](CN(c3nc(OC[C@@]45CCCN4C/C(=C\F)C5)nc4c(F)c(-c5cc(O)cc6ccc(F)c(C#C)c56)c(F)cc34)C1)N2 [Example 229, 4-(6,8-difluoro-2-(((S,Z)-2-(fluoro-methylene)tetrahydro-1H-pyrrolizin-7a(5H)-yl)methoxy)-4-((1R,5S)-1-(methyl-d3)-3,8-diazabicyclo[3.2.1]octan-3-yl)quinazolin-7-yl)-5-ethynyl-6-fluoro-naphthalen-2-ol]
IC50 [1]: 20.6 nM | IC50 [4]: 87.5 nM | IC50 [5]: 33.3 nM

C#Cc1c(F)ccc2cc(O)cc(-c3ncc4c(N5C[C@@H]6CC[C@](CC)(C5)N6)nc(OC[C@@]56CCCN5CC(=C)C6)nc4c3F)c12 [Example 20, 4-(4-((1R,5S)-1-ethyl-3,8-diazabicyclo[3.2.1]octan-3-yl)-8-fluoro-2-(((S)-2-methylenetetrahydro-1H-pyrrolizin-7a(5H)-yl)methoxy)pyrido[4,3-d]pyrimidin-7-yl)-5-ethynyl-6-fluoronaphthalen-2-ol]
IC50 [1]: 3 nM | IC50 [2]: 17.2 nM | IC50 ([3]; Homo sapiens, AGS, 96 h): 3.1 nM

[2H]C([2H])([2H])[C@@]12CC[C@@H](CN(c3nc(OC[C@@]45CCCN4C/C(=C\F)C5)nc4c(F)c(-c5cc(N)cc6ccc(F)c(C#C)c56)ncc34)C1)N2 [Example 355, 5-ethynyl-6-fluoro-4-(8-fluoro-2-(((S,Z)-2-(fluoromethylene)tetrahydro-1H-pyrrolizin-7a(5H)-yl)methoxy)-4-((1R,5S)-1-(methyl-d3)-3,8-diazabicyclo[3.2.1]octan-3-yl)pyrido[4,3-d]pyrimidin-7-yl)naphthalen-2-amine]
IC50 [1]: 11 nM | IC50 [2]: 66.1 nM | IC50 ([3]; Homo sapiens, AGS, 96 h): 17.7 nM | AUC ([6]; iv, 2 mg/kg): 223 ng·h/mL | Cmax ([6]; iv, 2 mg/kg): 68.9 ng/mL | half-life ([6]; iv, 2 mg/kg): 7.2 h | AUC ([6]; po, 10 mg/kg): 466 ng·h/mL | Cmax ([6]; po, 10 mg/kg): 120 ng/mL | bioavailability ([6]; po, 10 mg/kg): 41.7% | half-life ([6]; po, 10 mg/kg): 9.1 h

[2H]C([2H])([2H])OC[C@@]12CC[C@@H](CN(c3nc(OC[C@@]45CCCN4C/C(=C\F)C5)nc4c(F)c(-c5cccc6sc(N)c(C#N)c56)c(Cl)cc34)C1)N2 [Example 363, 2-amino-4-(6-chloro-8-fluoro-2-(((S,Z)-2-(fluoromethylene)tetra-hydro-1H-pyrrolizin-7a(5H)-yl)methoxy)-4-((1R,5S)-1-((methoxy-d3)methyl)-3,8-diaza-bicyclo[3.2.1]octan-3-yl)quina-zolin-7-yl)benzo[b]thiophene-3-carbonitrile]
IC50 [1]: 18.6 nM | IC50 [4]: 66.3 nM | IC50 [5]: 82.3 nM

[2H]C([2H])([2H])OC[C@@]12CC[C@@H](CN(c3nc(OC[C@@]45CCCN4C/C(=C/F)C5)nc4c(F)c(-c5cc(O)cc6ccc(F)c(C#C)c56)ncc34)C1)N2 [Example 84, 5-ethynyl-6-fluoro-4-(8-fluoro-2-(((S,E)-2-(fluoromethylene)tetrahydro-1H-pyrrolizin-7a (5H)-yl)methoxy)-4-((1R,5S)-1-((methoxy-d3)methyl)-3,8-diazabicyclo[3.2.1]octan-3-yl)pyrido[4,3-d]pyrimidin-7-yl) naphthalen-2-ol]
IC50 [1]: 3.9 nM | IC50 [2]: 59.3 nM | IC50 ([3]; Homo sapiens, AGS, 96 h): 11.4 nM

[2H]C([2H])([2H])C12CCC(CN(c3nc(OCC45CC(=C)CN4CC(=C)C5)nc4c(F)c(-c5cc(O)cc6ccc(F)c(C#C)c56)ncc34)C1)N2 (stereo not shown) [Example 6, 4-(2-((2,6-dimethylenetetrahydro-1H-pyrrolizin-7a(5H)-yl)methoxy)-8-fluoro-4-(1-(methyl-d3)-3,8-diazabicyclo[3.2.1]octan-3-yl)pyrido[4,3-d]pyrimidin-7-yl)-5-ethynyl-6-fluoronaphtha len-2-ol]
IC50 [1]: 3.2 nM | IC50 [2]: 48.9 nM | IC50 ([3]; Homo sapiens, AGS, 96 h): 14.3 nM

C#Cc1c(F)ccc2cc(O)cc(-c3ncc4c(N5C[C@@H]6CC[C@](CC)(C5)N6)nc(OC[C@@]56CCCN5C/C(=C\F)C6)nc4c3F)c12 [Example 55, 4-(4-((1R,5S)-1-ethyl-3,8-diazabicyclo[3.2.1]octan-3-yl)-8-fluoro-2-(((Z)-2-(fluoromethylene)tetrahydro-1H-pyrrolizin-7a (5H)-yl)methoxy)pyrido[4,3-d]pyrimidin-7-yl)-5-ethynyl-6-fl uoronaphthalen-2-ol]
IC50 [1]: 3 nM | IC50 [2]: 16.3 nM | IC50 [3]: 1.3 nM

C#Cc1c(F)ccc2cc(O)cc(-c3ncc4c(N5C[C@@H]6CC[C@](COC)(C5)N6)nc(OC[C@@]56CCCN5CC(=C)C6)nc4c3F)c12 [Example 22, 5-ethynyl-6-fluoro-4-(8-fluoro-4-((1R,5S)-1-(methoxymethyl)-3,8-diazabicyclo[3.2.1]octan-3-yl)-2-(((S)-2-methylenetetrahydro-1H-pyrrolizin-7a(5H)-yl)methoxy)pyrido[4,3-d]pyrimidin-7-yl)naphthalen-2-ol]
IC50 [1]: 2.9 nM | IC50 [2]: 14.3 nM | IC50 ([3]; Homo sapiens, AGS, 96 h): 21.7 nM

C#Cc1c(F)ccc2cc(O)cc(-c3ncc4c(N5C[C@@H]6CC[C@](COC)(C5)N6)nc(OC[C@@]56CCCN5C/C(=C\F)C6)nc4c3F)c12 [Example 58, 5-ethynyl-6-fluoro-4-(8-fluoro-2-(((Z)-2-(fluoromethylene)tetrahydro-1H-pyrrolizin-7a(5H)-yl)methoxy)-4-((1R,5S)-1-(methoxymethyl)-3,8-diazabicyclo [3.2.1]octan-3-yl)pyrido[4,3-d]pyrimidin-7-yl)naphthalen-2-ol]
IC50 [1]: 6 nM | IC50 [2]: 21.8 nM | IC50 ([3]; Homo sapiens, AGS, 96 h): 1.7 nM
